Target: T1, PDE 10A (Homo sapiens, UniProt Q9Y233)
T1 construct: is expressed recombinantly in full length in Sf9 insect cells; made in house; host or cells: Sf9 insect cells, Bac-to-Bac baculovirus expression system
Test: Inhibition of PDE 10A (in vitro enzyme inhibition test, [3H]cAMP scintillation proximity assay)
Format: biochemical
Settings: recombinant full-length PDE 10A expressed in Sf9 insect cells; substrate [5',8-3H] cAMP; 60 min at 20° C.
Description: 48 h after infection, the cells are harvested and suspended in 20 ml (per 1 l of culture) of lysis buffer (50 mM tris HCl, pH 7.4, 50 mM NaCl, 1 mM MgCl2, 1.5 mM EDTA, 10% glycerol plus 20 μl of Protease Inhibitor Cocktail Set III [CalBiochem, La Jolla, Calif. USA]). The cells are treated with ultrasound at 4° C. for 1 minute and subsequently centrifuged at 10 000 rpm for 30 minutes at 4° C. The supernatant (PDE 10A preparation) was collected and stored at −20° C.
The test substances are dissolved in 100% DMSO for the determination of their in vitro action on PDE 10A and serially diluted. […] 2 μl of the diluted substance solutions in each case are introduced into the hollows of microtiter plates (Isoplate; Wallac Inc., Atlanta, Ga.). Subsequently, 50 μl of a dilution of the PDE 10A preparation described above are added. The dilution of the PDE 10A preparation is chosen such that during the later incubation less than 70% of the substrate is reacted (typical dilution: 1:10 000; dilution buffer: 50 mM tris/HCl pH 7.5, 8.3 mM MgCl2, 1.7 mM EDTA, 0.2% BSA). The substrate, [5′,8-^3H] adenosine 3′,5′-cyclic phosphate (1 μCi/μl; Amersham Pharmacia Biotech., Piscataway, N.J.) is diluted 1:2000 with assay buffer (50 mM tris/HCl pH 7.5, 8.3 mM MgCl2, 1.7 mM EDTA) to a concentration of 0.0005 μCi/μl. The enzyme reaction is finally started by addition of 50 μl (0.025 μCi) of the diluted substrate. The test batches are incubated for 60 min at 20° C. and the reaction is stopped by addition of 25 μl of a suspension containing 18 mg/ml of Yttrium Scintillation Proximity Beads (Amersham Pharmacia Biotech., Piscataway, N.J.). The microtiter plates are sealed using a film and allowed to stand for 60 min at 20° C. Subsequently, the plates are measured for 30 s per hollow in a Microbeta scintillation counter (Wallac Inc., Atlanta, Ga.). IC50 values are determined by means of graphic plotting of the substance concentration against the percentage inhibition.

T1 sequence (Q9Y233 1-779 isoform Q9Y233-1): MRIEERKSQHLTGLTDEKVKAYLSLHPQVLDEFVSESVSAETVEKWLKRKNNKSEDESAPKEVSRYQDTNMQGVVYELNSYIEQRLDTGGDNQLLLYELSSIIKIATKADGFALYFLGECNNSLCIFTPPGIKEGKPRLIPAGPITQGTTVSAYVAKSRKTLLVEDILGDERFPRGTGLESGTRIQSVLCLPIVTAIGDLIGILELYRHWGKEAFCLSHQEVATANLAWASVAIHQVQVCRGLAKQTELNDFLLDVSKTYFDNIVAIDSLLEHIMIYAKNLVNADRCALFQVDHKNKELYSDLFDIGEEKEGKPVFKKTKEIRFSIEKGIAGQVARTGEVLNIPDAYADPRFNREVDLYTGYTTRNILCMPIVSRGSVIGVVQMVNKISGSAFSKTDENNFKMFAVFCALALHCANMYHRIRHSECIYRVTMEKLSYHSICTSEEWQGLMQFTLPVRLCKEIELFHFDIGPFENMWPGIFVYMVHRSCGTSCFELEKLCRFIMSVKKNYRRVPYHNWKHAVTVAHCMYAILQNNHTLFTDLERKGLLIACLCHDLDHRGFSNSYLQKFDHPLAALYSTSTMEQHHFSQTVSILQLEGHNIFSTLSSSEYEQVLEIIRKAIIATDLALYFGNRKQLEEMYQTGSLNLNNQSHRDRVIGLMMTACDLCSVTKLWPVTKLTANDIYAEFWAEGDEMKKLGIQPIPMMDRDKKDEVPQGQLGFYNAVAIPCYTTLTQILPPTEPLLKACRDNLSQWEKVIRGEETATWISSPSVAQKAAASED

IC50 [nM] | Compound
37 | COc1cc(Oc2nc(-c3ccc(NC(C)=O)cc3)nn3c(C)nc(C)c23)cc(OC)c1OC [Example 2, N-{4-[5,7-Dimethyl-4-(3,4,5-trimethoxyphenoxy)imidazo[5,1-f][1,2,4]triazin-2-yl]-phenyl}acetamide]
30 | COc1cc(Oc2nc(-c3cccc(NC(C)=O)c3)nn3c(C)nc(C)c23)cc(OC)c1OC [Example 9, N-{3-[5,7-Dimethyl-4-(3,4,5-trimethoxyphenoxy)imidazo[5,1-f][1,2,4]triazin-2-yl]-phenyl}acetamide]
6 | COc1cc(Nc2nc(-c3ccc(NC(=O)CO)cc3)nn3c(C)nc(C)c23)cc(OC)c1OC [Example 15, N-(4-{5,7-Dimethyl-4-[(3,4,5-trimethoxyphenyl)amino]imidazo[5,1-f][1,2,4]triazin-2-yl}phenyl)-2-hydroxyacetamide]
8 | COc1cc(Nc2nc(-c3ccc(NC=O)cc3)nn3c(C)nc(C)c23)cc(OC)c1OC [Example 12, 4-{5,7-Dimethyl-4-[(3,4,5-trimethoxyphenyl)amino]imidazo[5,1-f][1,2,4]triazin-2-yl}phenylformamide]
43 | COc1cc(Nc2nc(-c3cccc(NS(C)(=O)=O)c3)nn3c(C)nc(C)c23)cc(OC)c1OC [Example 11, N-(3-{5,7-Dimethyl-4-[(3,4,5-trimethoxyphenyl)amino]imidazo[5,1-f][1,2,4]triazin-2-yl}phenyl)methanesulfonamide]

Source: patent publication US7202243B2, “Substituted imidazotriazines” (Bayer HealthCare AG, priority 2002, dated 2007)
